Consider six molecules from article PMC5743546 (Biochemistry, 2017).

Data set [1] concerns the target T1, CYP2J2 (Homo sapiens, UniProt P51589).
T1 sequence (P51589 1-502): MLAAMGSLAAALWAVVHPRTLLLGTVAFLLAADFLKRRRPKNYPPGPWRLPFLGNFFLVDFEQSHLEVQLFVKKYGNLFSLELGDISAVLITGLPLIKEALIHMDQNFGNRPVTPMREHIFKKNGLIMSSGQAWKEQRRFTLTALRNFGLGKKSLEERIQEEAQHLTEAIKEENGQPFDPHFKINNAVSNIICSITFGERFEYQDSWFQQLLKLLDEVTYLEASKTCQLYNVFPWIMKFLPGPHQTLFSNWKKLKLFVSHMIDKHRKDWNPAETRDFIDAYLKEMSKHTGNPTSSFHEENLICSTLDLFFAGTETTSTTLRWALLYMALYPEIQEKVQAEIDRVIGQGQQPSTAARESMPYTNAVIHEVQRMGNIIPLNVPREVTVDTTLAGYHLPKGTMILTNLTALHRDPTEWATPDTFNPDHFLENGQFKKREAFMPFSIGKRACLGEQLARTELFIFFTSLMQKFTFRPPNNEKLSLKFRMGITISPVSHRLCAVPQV
Kind of data set: biochemical. As to conditions: for y0 (residual rate of AA epoxidation at maximum inhibition): fit to eq S1.

The target of data set [2] is T1, CYP2J2. In kind it is binding.
Data set [3] deals with T1, CYP2J2.
Data set [4] has as its target T1, CYP2J2. This is another data set of the same source.
In data set [5] the target is T1, CYP2J2. Kind of data set: CYP2J2-mediated ebastine. It counts as biochemical.
The conditions of data set [6]: cited from earlier work.
The target of data set [7] is T1, CYP2J2. Kind of data set: DOX metabolism kinetics by CPR and CYP2J2. The settings on record: none detected by LC-MS/MS analysis.
Substrate in data set [8]: COc1cccc2c1C(=O)c1c(O)c3c(c(O)c1C2=O)C[C@@](O)(C(=O)CO)C[C@@H]3O[C@H]1C[C@H](N)[C@H](O)[C@H](C)O1
In words: purified protein, by the assay type. The settings on record: other: CPR with CYP2J2; hyperbolic curve.

Like-named read-outs stand apart in the source and are kept apart here.

As usually defined, the IC50 is the point on the concentration scale where inhibition reaches its midpoint. A lower IC50 goes with higher potency. A word on the Ki: it is a measure of affinity in units of concentration, obtained from inhibition or displacement. The low end stands for tighter binding, the high end for weaker binding. What is called Kd is the equilibrium constant for the complex coming apart. High values mean weaker binding, low ones tighter binding. The term Km denotes the substrate concentration at which the rate is half of its maximum.

Take `COc1cccc2c1C(=N)c1c(O)c3c(c(O)c1C2=O)C[C@@](O)(C(C)=O)C[C@@H]3O[C@H]1C[C@H](N)[C@H](O)[C@H](C)O1` [5-IDN, 5-iminodaunorubicin]: on CYP2J2 [1], the 50% inhibitory concentration (IC50) worked out at 27.4 ± 0.03 µM and the Ki stood at 15.6 ± 0.02 µM.
At CYP2J2 [1], `COc1cccc2c1C(=O)c1c(O)c3c(c(O)c1C2=O)CC(O)(C(=O)CO)CC3` (stereo not drawn) [7-de-aDOX, 7-deoxydoxorubicin aglycone] registered an IC50 of 10.2 ± 0.1 µM and a Ki of 5.78 ± 0.03 µM. The same molecule registered a Kd on CYP2J2 [2] of 13.1 ± 1.1 µM. In addition, the “NADPH oxidation on addition of CYP2J2 (in words)” value on CYP2J2 [3] is recorded as “does not increase”. Besides, the “metabolism by CYP2J2 to form new products (in words)” value on CYP2J2 [4] was “does not metabolize”.
Regarding `CCCCC/C=C\C/C=C\C/C=C\C/C=C\CCCC(=O)O` [AA, arachidonic acid], the inhibition constant Ki at CYP2J2 [2] is greater than 200 µM. Moreover, at CYP2J2 [2] (100 μM AA, 1 μM DOX), the “inhibition of DOX binding to CYP2J2 (in words)” value was “weakly inhibits”.
On CYP2J2 [1], `COc1cccc2c1C(=O)c1c(O)c3c(c(O)c1C2=O)C[C@@](O)(C(=O)CO)C[C@@H]3O[C@H]1C[C@H](N)[C@H](O)[C@H](C)O1` [DOX, doxorubicin] returned an IC50 of 5.48 ± 0.04 µM and a Ki of 3.11 ± 0.02 µM. Besides, at CYP2J2 [1] (100 μM AA), the “enzyme activity retained in the presence of saturating amounts” value worked out at 23% and the “y0 (residual rate of AA epoxidation at maximum inhibition)” value is listed as 19.8 ± 3.8 pmol (min)^−1 (nmolCYP2J2)^−1. For the same molecule, binding on CYP2J2 [2] was put at a Kd of 5.32 ± 0.89 µM. Also, the “r0 (intrinsic polarization value)” value at CYP2J2 [2] (1 μM DOX or 7-de-aDOX, 37°C, with 100 μM AA or 60 μM EBS where indicated) stood at 0.083 ± 0.007. Also, the “r1 (maximum polarization value)” value at CYP2J2 [2] (1 μM DOX or 7-de-aDOX, one-site fit) is 0.219 ± 0.010. Besides, at CYP2J2 [5], the half-maximal inhibitory concentration (IC50) came to 17.9 µM and the affinity corresponds to a Ki of 8.97 ± 0.01 µM. Moreover, at CYP2J2 [5] (20 μM EBS, fit to eq S1), the “y0 (residual rate of EBS metabolism)” value is 5.87 ± 2.84. Moreover, in data set [6], the “plasma levels upon immediate exposure” value is 1 to 10 µM and the toxic cumulative dose is ~ 50 μM. Further, the “metabolism by CYP2J2 to form new products (in words)” value at CYP2J2 [7] was “does not metabolize”.
With `COc1cccc2c1C(=O)c1c(O)c3c(c(O)c1C2=O)C[C@@](O)(/C(C)=N/NC(=O)c1ccccc1)C[C@@H]3O[C@H]1C[C@H](N)[C@H](O)[C@H](C)O1` [ZRN, zorubicin], at CYP2J2 [1], half-maximal inhibition (IC50) was put at 6.46 ± 0.03 µM and the affinity corresponds to a Ki of 3.67 ± 0.02 µM. Besides, at CYP2J2 [1] (100 μM AA, 0–50 μM anthracycline), the “change in the regioselectivity of AA epoxidation (in words)” value is “not a significant change”. Besides, at CYP2J2 [1] (100 μM AA), the “y0 (residual rate of AA epoxidation at maximum inhibition)” value was 18.7 ± 3.5 pmol (min)^−1 (nmolCYP2J2)^−1.

B1: CYP2J2 (Homo sapiens) (protein)
chain: MLAAMGSLAAALWAVVHPRTLLLGTVAFLLAADFLKRRRPKNYPPGPWRLPFLGNFFLVDFEQSHLEVQLFVKKYGNLFSLELGDISAVLITGLPLIKEALIHMDQNFGNRPVTPMREHIFKKNGLIMSSGQAWKEQRRFTLTALRNFGLGKKSLEERIQEEAQHLTEAIKEENGQPFDPHFKINNAVSNIICSITFGERFEYQDSWFQQLLKLLDEVTYLEASKTCQLYNVFPWIMKFLPGPHQTLFSNWKKLKLFVSHMIDKHRKDWNPAETRDFIDAYLKEMSKHTGNPTSSFHEENLICSTLDLFFAGTETTSTTLRWALLYMALYPEIQEKVQAEIDRVIGQGQQPSTAARESMPYTNAVIHEVQRMGNIIPLNVPREVTVDTTLAGYHLPKGTMILTNLTALHRDPTEWATPDTFNPDHFLENGQFKKREAFMPFSIGKRACLGEQLARTELFIFFTSLMQKFTFRPPNNEKLSLKFRMGITISPVSHRLCAVPQV
Regarding B1, the Km in data set [8] stood at 10.4 ± 1.6 µM.
